Test results taken from ChEMBL document CHEMBL1201862, “PubChem BioAssay data set” (2004).
Active and inactive are the calls of the source.

Columns and labels:
Vero = experiment: Vero E6 cell cytotoxicity, SAR follow-up, cytotoxicity control for West Nile virus antiviral project, synthesized analogs (AID 2244); type: functional; details: Chlorocebus sabaeus
[1] = target: T1, Tyrosine-protein phosphatase non-receptor type 7 (Homo sapiens, UniProt P35236); type: functional
T1 sequence (P35236 whole entry): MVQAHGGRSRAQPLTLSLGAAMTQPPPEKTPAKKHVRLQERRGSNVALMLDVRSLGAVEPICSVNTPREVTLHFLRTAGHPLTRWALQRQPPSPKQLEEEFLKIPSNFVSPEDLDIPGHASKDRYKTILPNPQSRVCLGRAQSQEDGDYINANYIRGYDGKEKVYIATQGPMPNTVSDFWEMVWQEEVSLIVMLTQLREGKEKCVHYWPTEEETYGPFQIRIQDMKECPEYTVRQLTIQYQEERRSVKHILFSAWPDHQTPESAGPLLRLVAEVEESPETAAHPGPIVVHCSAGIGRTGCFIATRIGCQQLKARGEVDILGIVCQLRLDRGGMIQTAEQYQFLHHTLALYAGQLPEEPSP

[2] = target: Glyceraldehyde-3-phosphate dehydrogenase (Homo sapiens, UniProt P04406)
Chain of Glyceraldehyde-3-phosphate dehydrogenase (P04406 whole entry): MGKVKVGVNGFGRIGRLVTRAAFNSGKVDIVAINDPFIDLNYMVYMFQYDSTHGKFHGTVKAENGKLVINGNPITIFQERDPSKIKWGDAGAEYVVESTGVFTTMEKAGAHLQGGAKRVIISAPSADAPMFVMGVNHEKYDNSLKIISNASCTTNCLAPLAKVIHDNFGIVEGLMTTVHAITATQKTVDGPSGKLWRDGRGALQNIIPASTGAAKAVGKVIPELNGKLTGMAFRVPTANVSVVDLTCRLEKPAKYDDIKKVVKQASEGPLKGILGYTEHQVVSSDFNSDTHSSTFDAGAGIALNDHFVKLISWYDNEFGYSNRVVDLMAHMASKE

[3] = target: Heat shock cognate 71 kDa protein (Homo sapiens, UniProt P11142); experiment: In Vitro Hsc70 Dose Response Fluorescence Polarization Assay. [Related pubchem assays: 1072 ]
Chain of Heat shock cognate 71 kDa protein (P11142 whole entry): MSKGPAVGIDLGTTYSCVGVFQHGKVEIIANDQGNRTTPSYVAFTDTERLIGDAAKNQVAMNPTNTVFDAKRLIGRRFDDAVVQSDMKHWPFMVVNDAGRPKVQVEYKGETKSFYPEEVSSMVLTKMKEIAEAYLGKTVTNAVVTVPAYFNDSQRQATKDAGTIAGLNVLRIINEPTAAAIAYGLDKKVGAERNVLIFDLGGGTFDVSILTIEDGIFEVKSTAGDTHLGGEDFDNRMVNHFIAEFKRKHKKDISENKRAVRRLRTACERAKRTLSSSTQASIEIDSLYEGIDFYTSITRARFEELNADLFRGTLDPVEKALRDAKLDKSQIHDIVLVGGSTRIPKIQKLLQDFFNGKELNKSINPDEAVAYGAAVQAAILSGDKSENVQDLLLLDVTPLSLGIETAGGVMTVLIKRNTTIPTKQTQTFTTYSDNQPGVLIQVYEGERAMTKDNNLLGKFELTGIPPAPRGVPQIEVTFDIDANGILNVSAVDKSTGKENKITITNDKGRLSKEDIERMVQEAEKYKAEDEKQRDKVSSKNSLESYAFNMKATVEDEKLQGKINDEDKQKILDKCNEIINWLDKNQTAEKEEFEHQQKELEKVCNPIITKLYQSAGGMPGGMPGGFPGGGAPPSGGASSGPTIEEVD

[4] = target: Heat shock 70 kDa protein 1A (Homo sapiens, UniProt P0DMV8); experiment: Hsp70 inhibitors, SAR follow-up, biochemical, fluorescence polarization (AID 1072)
Chain of Heat shock 70 kDa protein 1A (P0DMV8 whole entry): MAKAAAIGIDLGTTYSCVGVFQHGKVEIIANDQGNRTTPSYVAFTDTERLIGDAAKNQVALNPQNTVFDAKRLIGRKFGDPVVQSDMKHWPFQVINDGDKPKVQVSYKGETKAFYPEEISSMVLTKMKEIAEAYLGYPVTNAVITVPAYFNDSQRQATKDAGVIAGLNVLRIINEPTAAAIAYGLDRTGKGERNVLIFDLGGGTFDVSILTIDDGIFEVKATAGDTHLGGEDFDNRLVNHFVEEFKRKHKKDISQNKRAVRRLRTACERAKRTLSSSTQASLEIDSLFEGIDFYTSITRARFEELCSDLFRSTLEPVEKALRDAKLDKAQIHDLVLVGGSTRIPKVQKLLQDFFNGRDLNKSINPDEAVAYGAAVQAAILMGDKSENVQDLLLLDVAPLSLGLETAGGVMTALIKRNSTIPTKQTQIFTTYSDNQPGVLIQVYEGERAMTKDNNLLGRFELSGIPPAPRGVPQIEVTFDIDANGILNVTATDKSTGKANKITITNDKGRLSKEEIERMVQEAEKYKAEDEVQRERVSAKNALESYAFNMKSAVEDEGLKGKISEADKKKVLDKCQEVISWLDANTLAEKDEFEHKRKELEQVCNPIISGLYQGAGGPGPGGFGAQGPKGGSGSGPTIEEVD

[5] = target: T2, Dual specificity protein phosphatase 6 (Rattus norvegicus, UniProt Q64346)
T2 sequence (Q64346 whole entry): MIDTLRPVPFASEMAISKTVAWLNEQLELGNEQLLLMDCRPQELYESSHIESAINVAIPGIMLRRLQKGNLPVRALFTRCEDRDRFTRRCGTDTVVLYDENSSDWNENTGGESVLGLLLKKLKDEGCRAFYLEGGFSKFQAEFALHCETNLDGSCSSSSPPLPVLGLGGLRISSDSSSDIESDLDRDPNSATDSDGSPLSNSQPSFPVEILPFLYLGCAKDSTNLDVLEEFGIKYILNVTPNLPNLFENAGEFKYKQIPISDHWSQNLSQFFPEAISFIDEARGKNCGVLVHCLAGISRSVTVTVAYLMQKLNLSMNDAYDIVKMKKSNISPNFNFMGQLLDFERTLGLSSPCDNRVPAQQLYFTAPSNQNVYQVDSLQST

[6] = target: T2, Dual specificity protein phosphatase 6; type: functional
X-box-binding protein 1 = X-box-binding protein 1 (Homo sapiens, UniProt P17861); type: functional, Cricetulus griseus;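 further: confirmatory dose-response counter-screen serving a CHOP assay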
[7] = target: Cystic fibrosis transmembrane conductance regulator/Golgi-associated PDZ and coiled-coil motif-containing protein (Homo sapiens, UniProt P13569+Q9HD26); experiment: CAL PDZ peptide-binding inhibitors, dose response, biochemical, fluorescence polarization, Cerulean-tagged CAL PDZ, cherry-picks (AID 504773)
[8] = target: Neurotensin receptor type 1 (Homo sapiens, UniProt P30989); type: functional;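 further: Image-based confirmatory dose-response assay measuring agonist activity at NTR1; NTR1-expressing U2OS osteosarcoma cells imaged for beta-arrestin GFP spot formation; agonist potency where compounds increase beta-arrestin recruitment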
Chain of Neurotensin receptor type 1 (P30989 whole entry): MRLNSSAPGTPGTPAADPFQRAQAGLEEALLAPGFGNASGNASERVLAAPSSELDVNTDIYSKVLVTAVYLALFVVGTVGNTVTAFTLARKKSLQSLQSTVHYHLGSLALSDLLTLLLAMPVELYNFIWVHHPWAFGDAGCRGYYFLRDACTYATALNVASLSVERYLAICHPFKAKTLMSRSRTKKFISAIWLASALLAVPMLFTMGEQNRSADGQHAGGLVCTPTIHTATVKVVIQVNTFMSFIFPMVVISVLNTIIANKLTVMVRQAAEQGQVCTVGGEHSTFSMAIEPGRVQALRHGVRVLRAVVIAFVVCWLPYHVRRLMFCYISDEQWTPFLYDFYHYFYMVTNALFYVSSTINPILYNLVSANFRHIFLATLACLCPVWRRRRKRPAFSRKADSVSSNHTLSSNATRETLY

[9] = target: T3, Replicative DNA helicase DnaB (Mycobacterium tuberculosis, UniProt P9WMR3); experiment: DnaB intein splicing inhibitors, dose response, biochemical, cell-free fluorescence (AID 449749); type: functional
T3 sequence (P9WMR3 whole entry): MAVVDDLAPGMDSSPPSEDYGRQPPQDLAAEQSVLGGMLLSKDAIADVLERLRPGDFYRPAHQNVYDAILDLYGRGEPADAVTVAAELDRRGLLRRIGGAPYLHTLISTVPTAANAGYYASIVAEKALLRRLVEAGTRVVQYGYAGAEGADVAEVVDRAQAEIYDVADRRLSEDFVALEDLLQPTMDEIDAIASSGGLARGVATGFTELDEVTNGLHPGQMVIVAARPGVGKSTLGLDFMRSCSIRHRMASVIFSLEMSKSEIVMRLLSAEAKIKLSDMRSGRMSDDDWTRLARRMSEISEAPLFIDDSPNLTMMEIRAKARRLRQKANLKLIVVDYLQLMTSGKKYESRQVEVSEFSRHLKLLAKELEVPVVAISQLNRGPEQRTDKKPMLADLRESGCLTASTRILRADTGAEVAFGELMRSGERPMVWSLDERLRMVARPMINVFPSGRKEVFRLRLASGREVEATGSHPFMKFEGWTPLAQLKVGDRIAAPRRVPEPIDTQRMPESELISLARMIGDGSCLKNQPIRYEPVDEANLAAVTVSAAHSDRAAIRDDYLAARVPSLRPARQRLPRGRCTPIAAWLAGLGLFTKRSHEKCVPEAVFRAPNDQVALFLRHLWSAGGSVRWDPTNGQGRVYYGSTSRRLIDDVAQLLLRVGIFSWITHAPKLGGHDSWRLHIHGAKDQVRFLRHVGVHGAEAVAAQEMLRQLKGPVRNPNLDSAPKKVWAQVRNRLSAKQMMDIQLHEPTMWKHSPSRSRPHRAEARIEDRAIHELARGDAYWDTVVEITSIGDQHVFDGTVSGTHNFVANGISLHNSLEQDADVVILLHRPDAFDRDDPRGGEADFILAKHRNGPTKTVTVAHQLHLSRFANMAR

Protein RecA = target: T4, Protein RecA (Mycobacterium tuberculosis, UniProt P9WHJ3); experiment: Fluorescence Cell-Free Homogeneous Dose Retest to Identify Inhibitors of RecA-Intein Splicing Activity. [Related pubchem assays (depositor defined):AID2097, AID2223, AID489010, AID492950]; type: functional
T4 sequence (P9WHJ3 whole entry): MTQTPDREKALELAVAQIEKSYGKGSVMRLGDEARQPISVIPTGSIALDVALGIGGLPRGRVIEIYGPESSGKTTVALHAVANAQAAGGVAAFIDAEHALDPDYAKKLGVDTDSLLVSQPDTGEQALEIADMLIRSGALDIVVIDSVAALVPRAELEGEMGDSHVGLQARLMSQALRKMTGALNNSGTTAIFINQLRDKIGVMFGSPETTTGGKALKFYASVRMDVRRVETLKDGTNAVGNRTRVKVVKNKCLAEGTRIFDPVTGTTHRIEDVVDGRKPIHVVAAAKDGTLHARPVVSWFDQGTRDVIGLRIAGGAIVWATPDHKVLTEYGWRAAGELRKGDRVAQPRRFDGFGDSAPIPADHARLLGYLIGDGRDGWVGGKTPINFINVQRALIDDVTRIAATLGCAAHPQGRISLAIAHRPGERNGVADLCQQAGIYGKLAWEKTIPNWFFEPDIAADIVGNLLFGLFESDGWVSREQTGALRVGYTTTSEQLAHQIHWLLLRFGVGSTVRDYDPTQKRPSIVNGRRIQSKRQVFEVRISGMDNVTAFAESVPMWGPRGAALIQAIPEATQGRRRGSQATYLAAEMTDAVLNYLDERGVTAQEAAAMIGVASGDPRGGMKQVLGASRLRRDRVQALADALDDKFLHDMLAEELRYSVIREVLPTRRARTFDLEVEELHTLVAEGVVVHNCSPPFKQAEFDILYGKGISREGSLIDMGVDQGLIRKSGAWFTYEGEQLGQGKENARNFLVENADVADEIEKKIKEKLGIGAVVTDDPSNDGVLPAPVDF

[10] = target: T5, Neuropeptides B/W receptor type 1 (Homo sapiens, UniProt P48145); experiment: Fluorescence-based dose response cell-based high throughput screening assay to identify antagonists of the G-protein coupled receptor 7 (GPR7). [Related pubchem assays: 1952 (Screening assay (GPR7 antagonists).), 1880 (Summary AID.)]; type: functional
T5 sequence (P48145 whole entry): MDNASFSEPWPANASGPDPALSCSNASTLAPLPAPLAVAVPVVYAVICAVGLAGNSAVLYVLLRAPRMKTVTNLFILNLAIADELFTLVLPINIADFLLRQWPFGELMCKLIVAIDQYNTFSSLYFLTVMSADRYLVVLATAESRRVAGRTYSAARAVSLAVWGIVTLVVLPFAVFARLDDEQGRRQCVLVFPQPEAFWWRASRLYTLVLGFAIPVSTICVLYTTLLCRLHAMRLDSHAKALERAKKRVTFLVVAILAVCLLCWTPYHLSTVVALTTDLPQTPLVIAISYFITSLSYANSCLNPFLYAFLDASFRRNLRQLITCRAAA

[11] = target: Melanin-concentrating hormone receptor 1 (Homo sapiens, UniProt Q99705); experiment: Fluorescence-based counterscreen for antagonists of the G-protein coupled receptor 7 (GPR7): cell-based high throughput dose response assay to identify antagonists of the melanin-concentrating hormone receptor 1 (MCHR1).; type: functional
[12] = target: Voltage-dependent T-type calcium channel subunit alpha-1H (Homo sapiens, UniProt O95180); type: functional;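 further: channel activity triggered by adding a high calcium stimulation buffer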
Chain of Voltage-dependent T-type calcium channel subunit alpha-1H (O95180 whole entry): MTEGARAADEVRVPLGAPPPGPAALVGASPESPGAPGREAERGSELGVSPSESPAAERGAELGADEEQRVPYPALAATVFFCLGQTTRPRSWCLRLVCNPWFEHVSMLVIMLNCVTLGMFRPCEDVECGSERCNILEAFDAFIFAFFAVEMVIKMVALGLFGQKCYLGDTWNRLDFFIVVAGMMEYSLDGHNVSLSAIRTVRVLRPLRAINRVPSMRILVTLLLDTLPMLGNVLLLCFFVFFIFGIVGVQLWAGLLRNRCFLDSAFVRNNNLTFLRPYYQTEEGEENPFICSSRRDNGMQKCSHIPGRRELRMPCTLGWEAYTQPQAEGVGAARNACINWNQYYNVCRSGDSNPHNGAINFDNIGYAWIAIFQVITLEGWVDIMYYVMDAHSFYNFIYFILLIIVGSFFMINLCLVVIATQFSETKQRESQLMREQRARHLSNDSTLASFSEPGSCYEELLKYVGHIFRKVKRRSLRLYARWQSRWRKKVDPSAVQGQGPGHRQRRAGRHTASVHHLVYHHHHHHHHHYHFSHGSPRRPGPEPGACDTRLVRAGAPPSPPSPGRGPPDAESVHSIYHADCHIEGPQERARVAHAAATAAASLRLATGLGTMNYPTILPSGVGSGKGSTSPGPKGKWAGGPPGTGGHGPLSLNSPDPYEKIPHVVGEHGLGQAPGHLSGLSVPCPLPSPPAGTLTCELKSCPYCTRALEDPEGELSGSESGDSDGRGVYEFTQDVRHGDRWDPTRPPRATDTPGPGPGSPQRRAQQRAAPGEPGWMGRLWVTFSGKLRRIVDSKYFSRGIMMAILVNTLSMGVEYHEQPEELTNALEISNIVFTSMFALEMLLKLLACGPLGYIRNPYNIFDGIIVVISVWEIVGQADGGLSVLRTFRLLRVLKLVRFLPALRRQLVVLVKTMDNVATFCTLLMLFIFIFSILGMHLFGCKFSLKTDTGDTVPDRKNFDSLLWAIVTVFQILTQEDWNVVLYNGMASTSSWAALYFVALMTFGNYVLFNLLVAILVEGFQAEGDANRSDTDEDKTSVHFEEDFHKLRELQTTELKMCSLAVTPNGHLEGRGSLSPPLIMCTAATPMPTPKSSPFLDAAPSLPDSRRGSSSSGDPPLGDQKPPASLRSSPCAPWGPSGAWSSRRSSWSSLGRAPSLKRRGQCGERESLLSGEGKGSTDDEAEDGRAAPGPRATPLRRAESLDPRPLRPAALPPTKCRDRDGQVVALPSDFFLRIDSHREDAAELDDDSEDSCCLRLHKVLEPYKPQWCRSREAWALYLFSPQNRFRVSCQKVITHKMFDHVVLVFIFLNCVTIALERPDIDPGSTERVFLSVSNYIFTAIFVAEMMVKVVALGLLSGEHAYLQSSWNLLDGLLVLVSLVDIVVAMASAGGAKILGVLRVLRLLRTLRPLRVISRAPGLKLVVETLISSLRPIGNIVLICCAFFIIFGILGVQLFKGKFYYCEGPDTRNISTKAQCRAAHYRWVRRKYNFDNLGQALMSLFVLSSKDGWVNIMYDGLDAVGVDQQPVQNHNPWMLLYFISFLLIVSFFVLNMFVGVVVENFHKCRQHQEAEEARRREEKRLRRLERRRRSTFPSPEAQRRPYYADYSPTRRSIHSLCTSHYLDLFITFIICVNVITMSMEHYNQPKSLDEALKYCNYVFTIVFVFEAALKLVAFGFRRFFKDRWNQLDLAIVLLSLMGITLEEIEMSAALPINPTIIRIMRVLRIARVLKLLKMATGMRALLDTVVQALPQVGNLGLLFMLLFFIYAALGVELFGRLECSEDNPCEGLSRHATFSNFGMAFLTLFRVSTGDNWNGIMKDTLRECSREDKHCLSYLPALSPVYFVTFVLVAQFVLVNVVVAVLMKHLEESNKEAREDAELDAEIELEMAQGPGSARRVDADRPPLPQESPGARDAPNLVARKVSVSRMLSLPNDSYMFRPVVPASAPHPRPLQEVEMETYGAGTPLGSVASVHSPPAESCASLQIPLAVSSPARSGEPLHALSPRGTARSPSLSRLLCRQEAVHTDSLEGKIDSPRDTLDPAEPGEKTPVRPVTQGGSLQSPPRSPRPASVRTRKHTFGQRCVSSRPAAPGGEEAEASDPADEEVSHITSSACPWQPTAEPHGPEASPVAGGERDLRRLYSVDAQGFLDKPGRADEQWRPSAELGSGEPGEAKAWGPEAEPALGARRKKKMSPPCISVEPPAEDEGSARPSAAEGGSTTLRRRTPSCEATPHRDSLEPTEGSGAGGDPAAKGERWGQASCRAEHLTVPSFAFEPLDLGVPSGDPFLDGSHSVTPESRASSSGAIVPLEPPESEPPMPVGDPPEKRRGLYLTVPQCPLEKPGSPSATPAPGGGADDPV

[13] = target: C-C chemokine receptor type 6 (Homo sapiens, UniProt P51684); experiment: CCR6 receptor antagonists, dose response, cell-based, luminescent beta-arrestin readout (AID 504728); type: functional
Beta-galactosidase = Beta-galactosidase (Escherichia coli, UniProt Q8VNN2); experiment: beta-galactosidase enzyme inhibitors and activators, dose response, artefact control for CCR6 antagonist project, biochemical, E. coli enzyme, set 3 (AID 504712); type: functional
[14] = THP-1 cell cytotoxicity, dose response, cytotoxicity control for Vif-APOBEC3G degradation inhibitor project, THP-1 cells (AID 1117359); type: functional; details: Human immunodeficiency virus 1, THP-1
Cytochrome P450 2C9 [15] = target: T6, Cytochrome P450 2C9 (Homo sapiens, UniProt P11712); details: Potency
T6 sequence (P11712 whole entry): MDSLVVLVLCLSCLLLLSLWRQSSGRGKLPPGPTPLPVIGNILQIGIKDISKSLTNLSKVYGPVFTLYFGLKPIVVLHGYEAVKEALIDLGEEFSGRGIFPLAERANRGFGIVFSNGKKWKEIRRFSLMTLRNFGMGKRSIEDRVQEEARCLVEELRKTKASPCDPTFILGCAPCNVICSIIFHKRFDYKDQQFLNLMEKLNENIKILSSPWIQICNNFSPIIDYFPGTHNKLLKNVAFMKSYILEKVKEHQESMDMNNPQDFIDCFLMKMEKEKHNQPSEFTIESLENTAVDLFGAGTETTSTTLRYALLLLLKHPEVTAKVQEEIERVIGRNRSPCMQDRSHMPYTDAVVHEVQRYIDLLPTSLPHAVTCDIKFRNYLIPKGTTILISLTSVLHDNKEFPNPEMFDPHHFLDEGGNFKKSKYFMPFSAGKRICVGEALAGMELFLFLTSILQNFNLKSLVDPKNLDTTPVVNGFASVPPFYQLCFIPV

Cytochrome P450 1A2 = target: T7, Cytochrome P450 1A2 (Homo sapiens, UniProt P05177);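 further: PubChem cytochrome P450 panel assay, CYP1A2 panel member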
T7 sequence (P05177 whole entry): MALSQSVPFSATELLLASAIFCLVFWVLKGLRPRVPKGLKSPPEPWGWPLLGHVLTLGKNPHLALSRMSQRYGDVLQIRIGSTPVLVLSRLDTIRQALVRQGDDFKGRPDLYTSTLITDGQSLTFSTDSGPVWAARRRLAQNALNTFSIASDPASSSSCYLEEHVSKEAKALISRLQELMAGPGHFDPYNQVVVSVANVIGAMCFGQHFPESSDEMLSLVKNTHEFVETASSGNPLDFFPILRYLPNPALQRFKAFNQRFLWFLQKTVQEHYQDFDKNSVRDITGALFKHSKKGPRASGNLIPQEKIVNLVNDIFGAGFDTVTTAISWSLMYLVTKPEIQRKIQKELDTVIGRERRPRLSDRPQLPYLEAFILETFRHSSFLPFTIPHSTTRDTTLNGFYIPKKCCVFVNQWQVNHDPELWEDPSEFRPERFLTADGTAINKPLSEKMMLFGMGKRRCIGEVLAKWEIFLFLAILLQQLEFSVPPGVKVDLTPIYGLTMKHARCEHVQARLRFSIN

Cytochrome P450 2C9 [16] = target: T6, Cytochrome P450 2C9

With `O=C(Nc1nc(-c2ccc(Cl)cc2)cs1)c1ccc(Cl)cc1` the CC50 (Vero) was > 40 µM (active).

With `O=C(Oc1ccc2ccccc2c1)c1ccc2c(c1)C1C=CCC1C(C(=O)O)N2` (stereo unspecified) the IC50 [1] was 2.04 µM (active), the IC50 [2] was 76.8 µM (active) and the IC50 [3] was 95.2 µM (active). The IC50 [4] was 43.9 µM (active), the IC50 [5] was 20.3 µM (active) and the IC50 [6] was 24.7 µM (active).

In the case of `CNc1nc(Sc2cccc(C(F)(F)F)c2)cc(C(F)(F)F)n1`, the “Absolute IC50 (XBP1)” value (X-box-binding protein 1) is reported as 10 µM.

For `Nc1ncnc2c1C(c1ccccc1)c1c(ccc3ccccc13)O2` (stereo unspecified), the AC50 [7] was 11.2 µM (active).

With `CSc1nnc(NC(=O)C23CC4CC(CC(C4)C2)C3)s1` the EC50 [8] was 8.21 µM (active), the AC50 [9] was > 380 µM (inactive) and the EC50 (Protein RecA) was > 380 µM (inactive).

With `Clc1ccccc1-c1nnn(Cc2ccc(-c3nnn[nH]3)cc2)n1` the IC50 [10] was > 43.8 µM (not active), the IC50 [11] was > 43.8 µM (not active) and the EC50 [12] was 4.37 µM (active).

In the case of `CC(=O)OC(C)C1C2=C(C(=O)CC1(C)O)C(=O)c1c(ccc(-c3ccc4c(c3O)C(=O)C3=C(C4=O)C(C(C)OC(C)=O)C(C)(O)CC3=O)c1O)C2=O` (stereo unspecified), the IC50 [13] is reported as > 66.6 µM (inactive), the IC50 (Beta-galactosidase) is reported as > 66.6 µM (inactive) and the CC50 [14] is reported as 19.3 µM (active).

In the case of `O=C1NCN(c2ccccc2)C12CCN(C[C@H]1COc3ccccc3O1)CC2`, the AC50 (Cytochrome P450 2C9 [15]) is reported as 31.6 µM (inconclusive), the AC50 (Cytochrome P450 1A2) is reported as 20 µM (inconclusive) and the AC50 (Cytochrome P450 2C9 [16]) is reported as 15.8 µM (inconclusive).
